Assay results: patent US20250113823A1, “Arthropod Control Compositions” (priority 2022, published 2025)
Read-outs that look alike come from different tables or passages of the source.

System: Aedes aegypti
Assay: Warm Body assay, mosquito landings on treated warm body
Type: in vivo
Conditions: for pest or weed control at 0.04 %: intermediate concentration of 0.04% (Table 3); for pest or weed control at 0.04 % / pest or weed control at 1 %: read-out: repellence; for pest or weed control at 0.0016 %: read-out: reduce the number of mosquito landings; for pest or weed control at 1 % / mosquito landing within the two minutes of experiments: highest tested concentration, 1% (Table 3)
Procedure: The arthropod controlling effect according to the present invention is determined on mosquitoes using an adapted Warm Body assay as defined in Kröber T, Kessler S, Frei J, Bourquin M, Guerin PM. An in vitro assay for testing mosquito controlling compounds employing a warm body and carbon dioxide as a behavioral activator. J Am Mosq Control Assoc. 2010; 26: 381-386. Further information is provided in the accompanying examples
The controlling effect, repellence & spatial repellence, according to the present invention is determined by testing the Warm Body assay against the yellow fever mosquito, Aedes aegypti Rockefeller strain. […] Observations of controlling efficacy were made on host-seeking females of uniform age, 5 to 10 days old selected as mentioned in the publication mentioned hereinabove. Tested hungry females had access to 10% sugar solution but were not blood-fed. Further information is provided in the accompanying examples.
The published protocol has been adapted in not manually counting the landing mosquitoes but automatically using an automatic counting software, the switch from Anopheles gambiae to A. aegypti led to a decrease of mosquitoes' number placed in the tested cage due to the size difference (i.e. 30 mosquitoes instead of 50) and to an increase of lighting as A. aegypti is a diurnal mosquitoes (i.e. 150 lux instead of 4 lux). Further information is provided in the accompanying examples. […]
The controlling effect according to the present invention was assessed using an adapted Warm Body assay as defined in Kröber T, Kessler S, Frei J, Bourquin M, Guerin P M. 2010. J Am Mosq Control Assoc. 26: 381-386. In this in-vitro assay the number of mosquito landing on a warm body, simulating an attractive host treated with the tested stimuli, was measured in order to assess the repellence effect.
The published protocol has been adapted as the switch from Anopheles gambiae to Aedes aegypti led to a decrease of mosquitoes placed in the tested cage due to the size difference (i.e. 30 mosquitoes instead of 50) and to an increase of lighting since A. aegypti is a diurnal mosquitoes (i.e. 150 lux instead of 4 lux).
On the sandblasted glass Petri dish covering the warm body (28.3 cm^2), 100 μL of the compounds diluted at different concentrations in ethanol was applied. The number of mosquito landing on the warm body was counted for each stimulus and pure ethanol (solvent) as control.

[1] = Aedes aegypti, 0.016 mg/mL (Table 3), read-out: Percentage of repellence of mosquitoes Aedes aegypti landing on the warm body
[2] = Aedes aegypti, 0.4 mg/mL (Table 3), read-out: Percentage of repellence of mosquitoes Aedes aegypti landing on the warm body
[3] = Aedes aegypti, 10 mg/mL (Table 3), read-out: Percentage of repellence of mosquitoes Aedes aegypti landing on the warm body
[4] = Aedes aegypti, lowest concentration of 0.0016% (Table 3)
[5] = Aedes aegypti, 0.0032 mg/mL (Table 2), read-out: Percentage of repellence of mosquitoes Aedes aegypti landing on the warm body
[6] = Aedes aegypti, 0.016 mg/mL (Table 2), read-out: Percentage of repellence of mosquitoes Aedes aegypti landing on the warm body
[7] = Aedes aegypti, 0.0357 mg/mL (Table 2), read-out: Percentage of repellence of mosquitoes Aedes aegypti landing on the warm body
[8] = Aedes aegypti, 0.08 mg/mL (Table 2), read-out: Percentage of repellence of mosquitoes Aedes aegypti landing on the warm body
[9] = Aedes aegypti, 0.178 mg/mL (Table 2), read-out: Percentage of repellence of mosquitoes Aedes aegypti landing on the warm body
[10] = Aedes aegypti, 0.4 mg/mL (Table 2), read-out: Percentage of repellence of mosquitoes Aedes aegypti landing on the warm body
[11] = Aedes aegypti, 0.89 mg/mL (Table 2), read-out: Percentage of repellence of mosquitoes Aedes aegypti landing on the warm body
[12] = Aedes aegypti, 2 mg/mL (Table 2), read-out: Percentage of repellence of mosquitoes Aedes aegypti landing on the warm body
[13] = Aedes aegypti, 10 mg/mL (Table 2), read-out: Percentage of repellence of mosquitoes Aedes aegypti landing on the warm body

Compound | pest or weed control at 16 µg/mL [1] [%] | pest or weed control at 400 µg/mL [2] [%] | pest or weed control at 10000 µg/mL [3] [%] | pest or weed control at 0.04 % (Aedes aegypti) [%] | pest or weed control at 1 % (Aedes aegypti) [%] | other results
COc1cc(C=CC(=O)O)cc(OC)c1O [compound 1553, 3-(4-hydroxy-3,5-dimethoxyphenyl)prop-2-enoic acid] | 60 | 85 | 43 | > 75 |  | pest or weed control at 0.0016 % [4]: > 50%
COc1cccc(CO)c1OC [compound 2263, (2,3-dimethoxyphenyl)methanol] | 52 | 96 | 97 | > 75 | > 90 | pest or weed control at 0.0016 % [4]: > 50%
CCc1cc(OC)c(O)c(OC)c1 [compound 2240, 4-ethyl-2,6-dimethoxyphenol] | 0 | 47 | 94 |  | > 90 | 
COc1cc(C=CC=O)ccc1O [compound 1527, 3-(4-hydroxy-3-methoxyphenyl)pro-2-enal] |  |  |  |  |  | Percentage of repellence of mosquitoes Aedes aegypti landing on the warm body (0.016 mg/mL (Table 3)): 69%; Percentage of repellence of mosquitoes Aedes aegypti landing on the warm body (0.4 mg/mL (Table 3)): 76%; Percentage of repellence of mosquitoes Aedes aegypti landing on the warm body (10 mg/mL (Table 3)): 71%
COc1cc(CC=O)ccc1O [compound 1467, 2-(4-hydroxy-3-methoxyphenyl)acetaldehyde] | 29 | 84 | 79 | > 75 |  | 
CCOc1cc(C)ccc1O [compound 1303, 2-ethoxy-4-methylphenol] | 16 | 21 | 100 |  | > 90 | mosquito landing within the two minutes of experiments: protect the attractive stimulus for any mosquito landing
COc1cc(C(=O)O)cc(OC)c1O [compound 2270, 4-hydroxy-3,5-dimethoxybenzoic acid] | 67 | 62 | 87 |  |  | pest or weed control at 0.0016 % [4]: > 50%
COc1cc(C=CC(=O)O)cc(OC)c1OC [compound 1566, 3-(3,4,5-trimethoxyphenyl)prop-2-enoic acid] |  |  |  |  |  | pest or weed control at 3.2 µg/mL [5]: 0%; pest or weed control at 16 µg/mL [6]: 20%; pest or weed control at 35.7 µg/mL [7]: 22%; pest or weed control at 80 µg/mL [8]: 0%; pest or weed control at 178 µg/mL [9]: 30%; pest or weed control at 400 µg/mL [10]: 81%; pest or weed control at 890 µg/mL [11]: 69%; pest or weed control at 2000 µg/mL [12]: 57%; pest or weed control at 10000 µg/mL [13]: 96%
COc1ccc(C#N)c(OC)c1OC [compound 2266, 2,3,4-trimethoxybenzonitrile] | 48 | 83 | 89 | > 75 |  | 
CC=Cc1cc(OC)c(O)c(OC)c1 [compound 1127, 2,6-dimethoxy-4-prop-1-enylphenol] |  |  |  |  |  | pest or weed control at 3.2 µg/mL [5]: 17%; pest or weed control at 16 µg/mL [6]: 1%; pest or weed control at 35.7 µg/mL [7]: 0%; pest or weed control at 80 µg/mL [8]: 0%; pest or weed control at 178 µg/mL [9]: 30%; pest or weed control at 400 µg/mL [10]: 42%; pest or weed control at 890 µg/mL [11]: 59%; pest or weed control at 2000 µg/mL [12]: 100%; pest or weed control at 10000 µg/mL [13]: 96%
COc1cc(C)cc(OC)c1OC [compound 2250, 1,2,3-trimethoxy-5-methybenzene] |  |  |  |  |  | Percentage of repellence of mosquitoes Aedes aegypti landing on the warm body (0.016 mg/mL (Table 3)): 21%; Percentage of repellence of mosquitoes Aedes aegypti landing on the warm body (0.4 mg/mL (Table 3)): 57%; Percentage of repellence of mosquitoes Aedes aegypti landing on the warm body (10 mg/mL (Table 3)): 100%; mosquito landing within the two minutes of experiments: protect the attractive stimulus for any mosquito landing
COc1cc(C=CCOC(C)=O)cc(OC)c1OC [compound 2247, 3-(3,4,5-trimethoxyphenyl)-2-acetate] |  |  |  |  |  | Percentage of repellence of mosquitoes Aedes aegypti landing on the warm body (0.016 mg/mL (Table 3)): 39%; Percentage of repellence of mosquitoes Aedes aegypti landing on the warm body (0.4 mg/mL (Table 3)): 44%; Percentage of repellence of mosquitoes Aedes aegypti landing on the warm body (10 mg/mL (Table 3)): 98%
CCOc1c(OC)cccc1OC [compound 2276, 2-ethoxy-1,3-dimethoxybenzene] | 0 | 0 | 98 |  | > 90 | 
CC=Cc1cc(OC)c(OC)c(OC)c1 [compound 1123, 1,2,3-trimethoxy-5-[1-propen-1-yl]benzene] |  |  |  |  |  | pest or weed control at 3.2 µg/mL (Aedes aegypti, 0.0032 mg/mL (Table 1), read-out: Percentage of repellence of mosquitoes Aedes aegypti landing on the warm body): 28%; pest or weed control at 7.1 µg/mL (Aedes aegypti, 0.0071 mg/mL (Table 1), read-out: Percentage of repellence of mosquitoes Aedes aegypti landing on the warm body): 10%; pest or weed control at 16 µg/mL (Aedes aegypti, 0.016 mg/mL (Table 1), read-out: Percentage of repellence of mosquitoes Aedes aegypti landing on the warm body): 63%; pest or weed control at 35.7 µg/mL (Aedes aegypti, 0.0357 mg/mL (Table 1), read-out: Percentage of repellence of mosquitoes Aedes aegypti landing on the warm body): 45%; pest or weed control at 53 µg/mL (Aedes aegypti, 0.053 mg/mL (Table 1), read-out: Percentage of repellence of mosquitoes Aedes aegypti landing on the warm body): 81%; pest or weed control at 80 µg/mL (Aedes aegypti, 0.08 mg/mL (Table 1), read-out: Percentage of repellence of mosquitoes Aedes aegypti landing on the warm body): 67%; pest or weed control at 119 µg/mL (Aedes aegypti, 0.119 mg/mL (Table 1), read-out: Percentage of repellence of mosquitoes Aedes aegypti landing on the warm body): 71%; pest or weed control at 178 µg/mL (Aedes aegypti, 0.178 mg/mL (Table 1), read-out: Percentage of repellence of mosquitoes Aedes aegypti landing on the warm body): 83%; pest or weed control at 267 µg/mL (Aedes aegypti, 0.267 mg/mL (Table 1), read-out: Percentage of repellence of mosquitoes Aedes aegypti landing on the warm body): 90%; pest or weed control at 400 µg/mL (Aedes aegypti, 0.4 mg/mL (Table 1), read-out: Percentage of repellence of mosquitoes Aedes aegypti landing on the warm body): 91%; pest or weed control at 598 µg/mL (Aedes aegypti, 0.598 mg/mL (Table 1), read-out: Percentage of repellence of mosquitoes Aedes aegypti landing on the warm body): 95%; pest or weed control at 890 µg/mL (Aedes aegypti, 0.89 mg/mL (Table 1), read-out: Percentage of repellence of mosquitoes Aedes aegypti landing on the warm body): 90%; pest or weed control at 2000 µg/mL (Aedes aegypti, 2 mg/mL (Table 1), read-out: Percentage of repellence of mosquitoes Aedes aegypti landing on the warm body): 98%; pest or weed control at 4470 µg/mL (Aedes aegypti, 4.47 mg/mL (Table 1), read-out: Percentage of repellence of mosquitoes Aedes aegypti landing on the warm body): 100%; pest or weed control at 10000 µg/mL (Aedes aegypti, 10 mg/mL (Table 1), read-out: Percentage of repellence of mosquitoes Aedes aegypti landing on the warm body): 98%
C=CCc1cc(OC)c(OC)c(OC)c1 [compound 1682, 1,2,3-trimethoxy-5-prop-2-enylbenzene] | 0 | 73 | 90 |  | > 90 | 
COc1cc(CC(=O)O)ccc1O [compound 1567, 2-(4-hydroxy-3-methoxyphenyl)acetic acid] | 54 | 86 | 98 | > 75 | > 90 | pest or weed control at 0.0016 % (Aedes aegypti): > 50%
CCOc1cc(C=O)ccc1OC [compound 2272, 3-ethoxy-4-methoxybenzaldehyde] | 0 | 77 | 89 | > 75 |  | 
COC(=O)C(C)Cc1ccc(OC)c(OC)c1 (stereo not drawn) [compound 1698, methyl 3-(3,4-dimethoxyphenyl)-2-methylpropanoate] | 45 | 88 | 100 | > 75 | > 90 | mosquito landing within the two minutes of experiments: protect the attractive stimulus for any mosquito landing
